Key:
[1] = biological target: α1β3γ2 GABAA receptor (Rattus norvegicus, UniProt P18508+P62813); assay: Two-electrode voltage clamp in Xenopus oocytes, α1β3γ2; conditions: oocytes
[2] = system: C57B1/6 mice; assay: Pavlovian fear conditioning, contextual memory, scopolamine impairment; assay type: in vivo; conditions: for fear conditioned contextual memory, impairment by scopolamine (in words): 10 mg/kg compound, 1 mg/kg scopolamine, mouse; for reversal of scopolamine induced memory deficits (in words): mice, dose not stated
Procedure: Because the hippocampus is involved in the regulation of events underlying learning and memory, α5 subtype selective agents were evaluated for their ability to modulate hippocampal-dependent and hippocampal-independent forms of memory using Pavlovian fear conditioning paradigms with mice or rats. The protocols for these studies were reported in references Bailey, D. J., Tetzlaff, J. E., Cook, J. M., He, X. H. and Helmstetter, F. J., “Effects of Hippocampal Injections of A Novel Ligand Selective for the Alpha 5 Beta 2 Gamma 2 Subunits of the GABA/Benzodiazepine Receptor on Pavlovian Conditioning,” Neurobiol. Learn. Mem., 78, 1-10 (2002); Delorey, T. M., Lin, R. C., Mcbrady, B., He, X. H., Cook, J. M., Lameh, J. and Loew, G. H., “Influence of Benzodiazepine Binding Site Ligands on Fear-Conditioned Contextual Memory,” Eur. J. Pharmacol., 426, 45-54 (2001).
Further, animal data for FIGS. 22-26 were obtained using experimental methodologies described in a previously published reference, Influence of benzodiazepine binding site ligands on fear-conditioned contextual memory European journal of Pharmacology, Volume 426, Issues 1-2, 24 Aug. 2001, Pages 45-54, Timothy M. DeLorey, Richard C. Lin, Brian McBrady, Xiaohui He, James M. Cook, Jelveh Lameh and Gilda H. Loew, which is incorporated by reference as if fully set forth here in its entirety. Selected sections of the reference are provided below:
Male C57B1/6 mice were obtained from Charles Rivers Laboratories (Holister, Calif.) at 6 weeks of age. Mice used in fear conditioning were between 7 and 12 weeks of age. Animals were housed eight to a cage in rooms with a normal 12-h light/12-h dark cycle (lights on 700-1900 h) with free access to food and water. Tests were conducted during the light phase between 1300 and 1700 h with a 20-min acclimation period in the testing room prior to drug or vehicle administration. All animal protocols used in this study conform to the guidelines determined by the National Institute of Health (USA) Office for Protection from Research Risks and are approved by the Animal Care and Use Committee of the Palo Alto Veterans Administration Medical Center, Palo, Alto, Calif. (USA).
Before testing each day, the mice were moved to a holding room and allowed to acclimate for at least 30 min. Each mouse received an i.p. injection of one of the following: vehicle, benzodiazepine binding site ligand (2-30 mg/kg), scopolamine (1 mg/kg), methylscopolamine (1 mg/kg) or scopolamine (1 mg/kg) combined with one of the benzodiazepine binding site ligands (2-30 mg/kg). The dose level chosen for each compound was one that neither elicited convulsions nor impaired locomotion. Twenty minutes after injection, the mice were placed individually in one of four identical experimental chambers (Med Associates, St. Albans, Vt.) that had been scented with 0.3% ammonium hydroxide solution before testing. Chambers were back-lit with fluorescent light with a white noise generator providing 70 dB of background noise. […] Twenty-four hours later, contextual memory was assessed by placing the mice back into the freshly rescented (0.3% Ammonium hydroxide) conditioning chambers in which they were trained, for a 4-min test period in the absence of footshock. Conditioned fear to the context was assessed by measuring the freezing response according to the methods of Fanselow and Bolles (1979). […] An observer, blind to the drug(s) used, scored each mouse every 8 s, for a total of 4 min, for presence or absence of freezing. […]

α1β3γ2 GABAA receptor, sequence (P62813 28-455): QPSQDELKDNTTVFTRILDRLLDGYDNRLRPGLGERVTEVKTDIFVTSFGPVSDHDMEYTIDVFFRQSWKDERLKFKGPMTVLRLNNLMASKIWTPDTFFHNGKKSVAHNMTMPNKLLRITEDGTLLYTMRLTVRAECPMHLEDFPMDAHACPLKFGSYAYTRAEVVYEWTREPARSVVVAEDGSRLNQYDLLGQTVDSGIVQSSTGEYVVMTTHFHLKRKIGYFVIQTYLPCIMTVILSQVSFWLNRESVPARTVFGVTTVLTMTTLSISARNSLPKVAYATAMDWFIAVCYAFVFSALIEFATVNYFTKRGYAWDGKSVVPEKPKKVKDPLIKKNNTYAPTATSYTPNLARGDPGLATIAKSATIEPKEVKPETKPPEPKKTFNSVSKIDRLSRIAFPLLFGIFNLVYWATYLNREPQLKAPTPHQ
α1β3γ2 GABAA receptor, sequence (P63079 26-473 partner): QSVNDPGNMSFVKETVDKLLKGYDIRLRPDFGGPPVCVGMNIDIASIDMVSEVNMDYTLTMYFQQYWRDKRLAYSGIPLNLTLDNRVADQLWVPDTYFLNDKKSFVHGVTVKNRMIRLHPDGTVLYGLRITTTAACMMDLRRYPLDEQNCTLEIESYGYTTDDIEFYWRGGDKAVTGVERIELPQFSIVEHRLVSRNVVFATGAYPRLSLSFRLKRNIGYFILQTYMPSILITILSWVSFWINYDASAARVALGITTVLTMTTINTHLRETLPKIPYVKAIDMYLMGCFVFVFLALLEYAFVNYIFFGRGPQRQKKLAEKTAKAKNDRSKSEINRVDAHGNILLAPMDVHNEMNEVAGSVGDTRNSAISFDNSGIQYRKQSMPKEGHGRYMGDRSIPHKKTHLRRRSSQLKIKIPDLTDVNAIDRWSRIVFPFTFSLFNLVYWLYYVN
α1β3γ2 GABAA receptor, sequence (P18508 39-466): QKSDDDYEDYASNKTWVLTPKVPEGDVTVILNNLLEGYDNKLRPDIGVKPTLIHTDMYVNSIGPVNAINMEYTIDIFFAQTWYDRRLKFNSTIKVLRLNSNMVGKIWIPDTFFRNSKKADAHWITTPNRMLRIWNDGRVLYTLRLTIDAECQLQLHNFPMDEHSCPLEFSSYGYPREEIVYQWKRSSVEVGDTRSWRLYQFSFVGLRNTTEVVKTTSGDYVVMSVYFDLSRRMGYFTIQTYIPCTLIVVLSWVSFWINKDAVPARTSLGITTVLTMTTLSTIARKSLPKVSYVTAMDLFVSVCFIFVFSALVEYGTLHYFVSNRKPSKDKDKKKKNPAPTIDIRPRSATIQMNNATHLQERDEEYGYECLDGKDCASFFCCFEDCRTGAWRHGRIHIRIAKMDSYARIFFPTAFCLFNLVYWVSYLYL

SMILES: CCc1ccc2c(c1)C(=O)N(C)Cc1c(C(=O)OCCCOC(=O)c3ncn4c3CN(C)C(=O)c3cc(CC)ccc3-4)ncn1-2 [XLi356, 1,3-Bis(8-ethyl-5,6-dihydro-5-methyl-6-oxo-4H-imidazo[1,5a][1,4]benzodiazepine-3-carboxy)propyl diester]
- efficacy / modulation of GABA elicited currents at α1 (in words) [1]: no activity
- fear conditioned contextual memory, impairment by scopolamine (in words) [2]: attenuates the impairment of memory
- reversal of scopolamine induced memory deficits (in words) ([2]; listed as XLi 356): potently reverse scoploamine induced memory deficiencies
- reversal of scopolamine induced memory deficits (in words) ([2]; listed as Xli356): reverse scopolamine induced memory deficits

SMILES: COCc1ncn2c1CN(C)C(=O)c1cc(Cl)ccc1-2 [PWZ-029, methyl(8-chloro-5,6-dihydro-5-methyl-6-oxo-4H-imidazo[1,5-α][1,4]benzodiazepin-3-yl)methyl ether]
- fear conditioned contextual memory, impairment by scopolamine (in words) [2]: attenuation of contextual memory impairment
- reversal of scopolamine induced memory deficits (in words) [2]: reverse scopolamine induced memory deficits

SMILES: CCOC(=O)c1ncn2c1CN=C(c1ccccc1)c1cc(-c3ccccc3)ccc1-2 [DM-I-81, Ethyl 8-phenyl-6-phenyl-4H-benzo[f]imidazo[1,5-a][1,4]diazepine-3-carboxylate]
- efficacy / modulation of GABA elicited currents at α1 (in words) [1]: very poor efficacy
